Measurements taken from article PMC4961401 (PLoS ONE, 2016).
Entries after “also recorded” stand apart in the source; their conditions may differ. Read-outs that look alike come from different tables or passages of the source.

Key:
Src = experiment: Western blot of Src activation (p-Src); type: cell-based, human; conditions: A549 cells, 50 nM
Description: (§1) Western blot assays were conducted as described previously. Briefly, the cellular protein samples were denatured by mixing with equal volume of 2 × sample loading buffer and then boiling at 100°C for 5 min. An aliquot (50 μg as protein) of the supernatant was loaded onto a 12% SDS gel, separated electrophoretically, and transferred to a Nitrocellulose membrane (Bio-Rad). After the membrane was incubated with 10 mM TBS with 20% Tween 20 and 5% dehydrated skim milk to block nonspecific protein binding, the membrane was incubated with primary antibodies overnight at 4°C. The primary antibodies used for detection of α1 and α3 subunit of Na+,K+-ATPase were rabbit polyclonal antibody against human ATP1A1 (55187, Proteintech, 1:1000) and ATP1A3 (sc-374050, Santa Cruz Biotechnology, 1:1000), respectively. Other primary antibodies including rabbit polyclonal antibody against human Src (#2109S, 1:1000), phosphor-Src(Tyr416) (#6943S, 1: 1000); PI3K p85 (#4257P, 1:1000), phosphor-PI3K p85(Tyr458)/p55(Tyr199) (#4228P, 1: 600), Akt (#9272, 1:1000), phosphor-Akt(Ser473) (#4060S, 1:800), Bax (#2772S, 1:1000), Pro-caspase-9 (#9502S, 1:800), Caspase-3 (#9662S, 1:800); PARP (#9542, 1:1000) and GAPDH (#2118, 1:1000) were all purchased from Cell Signaling Technology. After TBS washes, blots were then incubated with HRP-linked goat anti-rabbit IgG (#7074, 1:1000) secondary antibody for 2 h at room temperature at a 1:1000 dilution and then visualized using chemiluminescence (Pierce Biotechnology, Rockford, IL, USA).

caspase-3 = experiment: Caspase-3 activity assay (Ac-DEVD-pNA); type: cell-based, human; conditions: A549 cells, 24 h, different concentrations
Description: The activity of caspase-3 was determined using a caspase-3 activity assay kit (C1115, Beyotime Biotechnology, Shanghai, China) according to the manufacturer's instructions. Briefly, after treatment with BF or BF211 at different concentrations for 24 h, the A549 cells were collected, washed with PBS and incubated with lysis buffer on ice for 15 min. After centrifugation at 2,000 g for 15 min at 4°C, the cell lysates were collected, and their protein concentrations were determined using the A280 method with a UV-Vis Spectrophotometer Q5000 (Quawell Technology, San Jose, CA, USA). Cell lysates (50 μg protein) were then added to reaction buffer containing the caspase-3 substrate Ac-DEVD-p-nitroanilide (2 mM) in 96-well microtiter plates and incubated at 37°C for 4 h. The caspase-3 activity in the samples was quantified by detecting the release of p-nitroanilide from Ac-DEVD-p-nitroanilide with a microplate spectrophotometer at 405 nm. The caspase-3 activity was expressed as the fold of enzyme activity in comparison with the control.

NCI-H460 cells = experiment: MTT cell proliferation assay, NCI-H460; type: cell-based; conditions: Homo sapiens, NCI-H460, 72 h, read-out: IC50 values, inhibiting proliferation
Description: (§2) The human lung cancer A549, NCI-H460, NCI-H522 and NCI-H1299 cell lines were purchased from the Cell Resource Center of Shanghai Institutes for Biological Sciences, Chinese Academy of Sciences (Shanghai, P.R. China).
(§3) Cell proliferation was assessed using a colorimetric MTT assay as described previously [10]. […] After treatment, the viability of cells was evaluated by checking the absorbance at 570 nm.

A549 cells [1] = experiment: Free intracellular Ca2+ level (Fluo-3 AM, flow cytometry); type: cell-based, human; conditions: 50 nM
Description: The level of intracellular free Ca2+ in A549 cells was determined using the fluorescent dye Fluo-3 AM (S1056, Beyotime Biotechnology, Shanghai, China), which can cross the cell membrane and be cleaved into Fluo-3 by intracellular esterase. […] After being exposed to 50 nM BF or BF211 for 0.5, 1, 10, 30, 60 and 180 min, the cells were harvested, washed twice with PBS, and then incubated with Fluo-3 AM (5 μM) in the dark at 37°C for 1 h. After washing twice with PBS to remove the remaining extracellular probe, the cells were submitted to flow cytometric analysis with an excitation wavelength of 488nm. The quantification was conducted using the FlowJo software program based on the mean values of the peak fluorescent intensity.

A549 tumor xenografts = experiment: Human A549 tumor xenograft in nude mice; type: in vivo, Balb/c-nu-nu mice; conditions: i.p., qd
Description: Male nude immunodeficient Balb/c-nu-nu mice, aged 6–7 weeks were purchased from the Shanghai Experimental Animal Center and housed in accordance with protocols approved by the Shanghai Institute of Materia Medica, Chinese Academy of Sciences. Generally, on day 0, A549 cells (8×10^6 cells) suspended in 0.1 mL of PBS were mixed with 0.1 mL Matrigel basement membrane matrix (BD Biosciences) and then inoculated s.c. in the right flank of each mouse. Tumors were allowed to reach 100–300 mm^3 in size before treatments were adminstered. In the animal experiment, the tumor size was measured every 3–4 days using calipers and the tumor volume was calculated using the standard formula, width^2×length/2. Body weight was measured daily.
Two experiments using nude mice with A549 tumor xenografts were conducted. In the first experiment, we tried to compare the anti-cancer effects of BF and BF211 at the same concentrations. Briefly, 12 days after inoculation, the mice were randomly divided into 6 groups (6 mice in each group) and began treatment with the vehicle control (natural saline, i.p., qd); a positive control (rapamycin, 10 mg/kg, i.v., once a week); BF at 0.8 mg/kg, i.p., qd; BF at 0.4 mg/kg for 7 days, which was then increased to 1.6 mg/kg for 9 days, i.p., qd; BF211 at 0.8 mg/kg, i.p., qd; BF211 at 0.4 mg/kg for 7 days, which was then increased to 1.6 mg/kg for 9 days, i.p., qd. In the second experiment, the anti-cancer effects of BF211 were determined at higher concentrations. Briefly, 15 days after inoculation, mice were randomly divided into 5 groups (10 mice in each group) and started treatment with the vehicle control (i.p., qd); a positive control (rapamycin, 10 mg/kg, i.v., once a week); BF211 at 2 mg/kg, i.p., qd; BF211 at 4 mg/kg, i.p., qd; BF211 at 6 mg/kg, i.p., qd. No mice died during this experimental period, and all animals were euthanized by CO2 inhalation at the end of the experiment.

NCI-H1299 cells = experiment: MTT cell proliferation assay, NCI-H1299; type: cell-based; conditions: Homo sapiens; NCI-H1299, 72 h treatment; read-out: IC50 values, inhibiting proliferation
Description: as §2, §3

ICR mice [2] = conditions: i.p., ref [14]; cited from earlier work
[3] = tested on: porcine cortex Na+/K+-ATPase; experiment: Na+/K+-ATPase activity (Pi liberated from ATP); type: biochemical; conditions: for inhibition of the activity of porcine cortex Na+/K+-ATPase: different concentrations, 1 h incubation
Description: The activity of Na+/K+-ATPase was determined by measuring the amount of inorganic phosphate (Pi) liberated from ATP, as described previously. Briefly, a commercial Na+/K+-ATPase from porcine cerebral cortex (Sigma-Aldrich, USA) was incorporated into a reaction mixture containing 1 mM ATP, 5 mM MgCl2, 80 mM NaCl, 20 mM KCl, and 40 mM Tris-HCl (pH 7.8). The enzymatic reaction was terminated by adding trichloroacetic acid after the incubation period (1 h). After centrifugation, the supernatant was diluted with deionized water and then the color development reagent provided by the QuantiChrom™ Phosphate Assay Kit (BioAssay Systems, USA) was added. After 30 min of incubation at room temperature, the color intensity was measured at 620 nm on GENIOS reader (TEACAN, Switzerland). The Na+/K+-ATPase energy transducing activity was expressed as μmol Pi liberated from ATP by 1 mg of Na+/K+-ATPase in 1 h.

A549 cells [4] = experiment: MTT cell proliferation assay, A549; type: cell-based; conditions: Homo sapiens, read-out: IC50, cell viability (MTT)
Description: as §2, §3

NCI-H522 cells = experiment: MTT cell proliferation assay, NCI-H522; type: cell-based; conditions: Homo sapiens; NCI-H522, 72 h treatment; read-out: IC50 values, inhibiting proliferation
Description: as §2, §3

caspase-3, PARP = experiment: Western blot of caspase-3 activation and PARP cleavage; type: cell-based, human; conditions: A549 cells, 24 h, different concentrations
Description: as §1, with “After TBS washes, blots were then incubated with HRP-linked goat anti-rabbit IgG (#7074, 1:1000) secondary antibody for 2 h at room temperature at a 1:1000 dilution and then visualized using chemiluminescence (Pierce Biotechnology, Rockford, IL, USA).” left out

A549 cells [5] = experiment: Annexin V/PI flow cytometry analysis of apoptosis; type: cell-based, human; conditions: 24 h treatment
Description: Flow cytometric analysis of the level of apoptosis was conducted using Alexa Fluor 488 Annexin V & PI /Dead Cell Apoptosis Kit (Invitrogen) according to the manufacturer’s instructions. Briefly, after the 24 h treatment with BF or BF211 at different concentrations, the cells were collected, washed with PBS and resuspended in binding buffer. Then, the cells were incubated with Annexin V-FITC and propidium iodide for 15 min in the dark at room temperature, and flow cytometric analysis was conducted. Data analysis was performed with the CellQuest software.

[6] = target: recombinant extracellular portion of human Na+/K+-ATPase α1 subunit (Homo sapiens, UniProt P05023); experiment: SPR (Biacore 3000) binding, α1 subunit
Description: (§4) The recombinant extracellular portion of human Na+/K+-ATPase α1 subunit (M1-M2, M3-M4, M5-M6, M7-M8 and M9-M10) was expressed as a His-fusion protein using Escherichia coli, and purified by affinity chromatography. […] The BamH I-Hind III fragment of the gene was subcloned into a pET-32b expression vector (Novagen) and transformed into E. coli BL21 (DE3) cells (Novagen). The BL21 transformants were cultivated in LB medium with ampicillin to an A600 nm of 0.8 at 37°C. Expression was induced by adding isopropyl β-D-thiogalactopyranoside (IPTG) to a final concentration of 10 mM, and incubated overnight at 20°C. The fusion protein containing a His-tag was isolated from the bacterial lysates by Ni^2+-chelation affinity chromatography using a Bio-Scale™ Mini Profinity™ IMAC Cartridge (Bio-Rad). Finally, the recombinant protein was desalted using a Bio-Scale™ Mini Bio-Gel P-6 Desalting Cartridge (Bio-Rad). The recombinant extracellular portions of the α2 and α3 subunits of human Na+/K+-ATPase were also expressed and purified using similar methods.
(§5) Briefly, for the SPR assay, the α1, α2 or α3 subunit protein was immobilized on a CM5 sensor chip as a ligand with N-ethyl-N’-(3-dimethylaminopropyl) carbodiimide (EDC) and N-hydroxysuccinimide (NHS) according to standard primary amine-coupling procedures. […] HBS-EP (10 mM HEPES, 150 mM NaCl, 3 mM EDTA, and 0.005% (v/v) surfactant P20, pH 7.4) was used as the running buffer. The equilibration of the baseline was performed by a continuous flow of HBS-EP through the chip surface for 1 to 2 h. The Biacore data were collected at 25°C with HBS-EP as the running buffer at a constant flow of 30 μL/min. […] The binding responses were recorded continuously in response units (RU) at a frequency of 1 Hz in sensorgrams and presented as a function of time.

[7] = target: recombinant extracellular portion of human Na+/K+-ATPase α2 subunit (Homo sapiens, UniProt P50993); experiment: SPR (Biacore 3000) binding, α2 subunit
Sequence of recombinant extracellular portion of human Na+/K+-ATPase α2 subunit (P50993 with tags, fused parts or gaps): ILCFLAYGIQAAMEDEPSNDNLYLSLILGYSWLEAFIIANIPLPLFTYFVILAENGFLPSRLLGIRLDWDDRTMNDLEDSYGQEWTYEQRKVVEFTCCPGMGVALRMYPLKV
Description: as §4, §5

[8] = target: recombinant extracellular portion of human Na+/K+-ATPase α3 subunit (Homo sapiens, UniProt P13637); experiment: SPR (Biacore 3000) binding, α3 subunit
Sequence of recombinant extracellular portion of human Na+/K+-ATPase α3 subunit (P13637 with tags, fused parts or gaps): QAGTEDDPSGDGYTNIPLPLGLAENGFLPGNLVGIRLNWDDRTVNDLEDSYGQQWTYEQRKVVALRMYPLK
Description: as §4, §5

tumor cell lines = tested on: tumor cell lines; design: method as in PMID 26827628; conditions: broad spectrum of tumor cell lines; ref [8]; cited from earlier work
ICR mice [9] = conditions: single dose i.p., Bliss method
Description: (§6) Therefore, totally 180 mice were used in the study of acute toxicity. […] During the 3 h observation period and other monitoring time periods, animals found in a moribund condition (head and body lying flat on cage bedding with little or no response to stimuli) and animals showing severe pain or severe distress (agonal breathing, intermittent gasping or both) were humanely killed. […] At the end of the experiment, all surviving animals were euthanized by CO2 inhalation. […] The LD50 value was calculated according to the Bliss method.

in vivo = conditions: ICR, mouse, ip
Description: as §6

[10] = concentrations less than 2 mg/kg (0.8 mg/kg, or 0.4 then 1.6 mg/kg)

SMILES: C[C@]12CC[C@H](O)C[C@H]1CC[C@@H]1[C@@H]2CC[C@]2(C)[C@@H](c3ccc(=O)oc3)CC[C@]12O [BF, Bufalin, reference compound]
- level of phosphorylated Src (p-Src) (Src; 1 h after treatment): significant increase
- enzyme activity of caspase-3 (caspase-3): increase in the activity of caspase-3
- IC50 (NCI-H460 cells): 114 ± 11.2 nM
- time of peak intracellular Ca2+ level (A549 cells [1]): 0.5 min
- effect on tumor growth (A549 tumor xenografts; [10]): weak inhibitive effects
- IC50 (NCI-H1299 cells): 88.3 ± 11.9 nM
- LD50 (ICR mice [2]): 2.2 mg/kg
- inhibition of the activity of porcine cortex Na+/K+-ATPase [3]: concentration-dependent
- IC50 (A549 cells [4]; 48 h treatment): 10.2 ± 1.01 nM
- IC50 (NCI-H522 cells): 98.7 ± 2.76 nM
- activation of caspase-3 and cleavage of PARP (caspase-3, PARP): could induce the activation of caspase-3 and the cleavage of PARP
- induction of apoptosis (A549 cells [5]): could induce apoptosis

SMILES: C[C@]12CC[C@H](OC(=O)NC3CCNCC3)C[C@H]1CC[C@@H]1[C@@H]2CC[C@]2(C)[C@@H](c3ccc(=O)oc3)CC[C@]12O [BF211]
- level of phosphorylated Src (p-Src) (Src; 1 h after treatment): significant increase
- level of phosphorylated Src (p-Src) (Src; 3 h after treatment): significant increase
- enzyme activity of caspase-3 (caspase-3): significantly stronger than that of BF
- IC50 (NCI-H460 cells): 68 ± 6.91 nM
- time of another (second) peak of intracellular Ca2+ level (A549 cells [1]): 1800 s
- time of peak intracellular Ca2+ level (A549 cells [1]): 0.5 min
- effect on tumor growth (A549 tumor xenografts; 6 mg/kg): almost totally blocked; also recorded: almost totally inhibited
- effect on growth of tumor xenografts (A549 tumor xenografts; 2, 4, and 6 mg/kg): concentration-dependent inhibitive effects
- effect on growth of tumor xenografts (A549 tumor xenografts; 4 or 6 mg/kg): strongly inhibited
- effect on tumor growth (A549 tumor xenografts; [10]): weak inhibitive effects
- kon ([6]; read-out: Association (ka)): 17700 M⁻¹ s⁻¹
- koff ([6]; read-out: Dissociation (kd)): 0.0526 s⁻¹
- Kd ([6]; α1, SPR, KD = kd/ka, read-out: Equilibrium dissociation (KD)): 2960 nM
- kon ([7]; read-out: Association (ka)): 9820 M⁻¹ s⁻¹
- koff ([7]; read-out: Dissociation (kd)): 0.0441 s⁻¹
- Kd ([7]; α2, SPR, KD = kd/ka, read-out: Equilibrium dissociation (KD)): 4490 nM
- kon ([8]; 25°C, 1:1 Langmuir model, read-out: Association (ka)): 30700 M⁻¹ s⁻¹
- koff ([8]; 25°C, 1:1 Langmuir model, read-out: Dissociation (kd)): 0.116 s⁻¹
- Kd ([8]; KD = kd/ka, read-out: Equilibrium dissociation (KD)): 3780 nM
- IC50 (NCI-H1299 cells): 40.1 ± 4.04 nM
- IC50 values, anticancer activities (tumor cell lines): nanomolar level
- inhibition of Na+/K+-ATPase activity compared with BF ([3]; at some concentrations, such as 0.1 μM): slightly weaker than BF
- inhibition of the activity of porcine cortex Na+/K+-ATPase [3]: concentration-dependent
- IC50 (A549 cells [4]; 24 h treatment): 6.76 ± 0.41 nM
- IC50 (A549 cells [4]; 48 h treatment): 4.01 ± 2.68 nM
- LD5 (95% confidence) (ICR mice [9]; female mice): 12.03 mg/kg (10.04~14.41 mg/kg)
- LD95 (95% confidence) (ICR mice [9]; female mice): 27.55 mg/kg (22.56~33.66 mg/kg)
- LD5 (95% confidence) (ICR mice [9]; male mice): 9.52 mg/kg (7.81~11.61 mg/kg)
- LD95 (95% confidence) (ICR mice [9]; male mice): 22.85 mg/kg (18.89~27.64 mg/kg)
- IC50 (NCI-H522 cells): 48.3 ± 0.69 nM
- activation of caspase-3 and cleavage of PARP (caspase-3, PARP): stronger than that of BF at high concentrations
- LD50 (in vivo; female): 18.2 mg/kg
- LD50 (in vivo; male): 14.8 mg/kg
- induction of apoptosis (A549 cells [5]): more strongly induced apoptosis than BF
